Assay results: patent publication US5162231A, “Method of using 5,10,15,20-tetrakis(carboxyphenyl)porphine for detecting cancers of the lung” (priority 1990, dated 1992)

How the values were obtained:
[1] = tested on: malignant sputum cells; experiment: Porphyrin uptake in sputum cells evaluated with a fluorescent microscope; format: cell-based, human
Text: Five parameters were investigated for this study: (1) the effect of various sputum processing procedures on the uptake of porphyrin in sputum cells, (2) the comparison of TCPP to three other porphyrins that are known for their uptake by tumors, (3) the time required for optimal uptake of the porphyrin in sputum cells, (4) the uptake of porphyrin in test and control sputum samples, and (5) the verification that TCPP was localizing in malignant sputum cells. In each of these investigations, the uptake of porphyrin in sputum cells was evaluated with a fluorescent microscope. Nonmetallated porphyrin fluoresces at approximately 650 nm. Sputum samples were evaluated for (1) the number of cells in the sputum samples which fluoresced, and (2) the intensity of the porphyrin fluorescence.
Sputum samples require processing in order to produce a single cell suspension of lung cells. Sputum samples from test and control patients were collected and processed with alcohol and carbowax, alcohol only, phosphate-buffered saline (PBS), or left unprocessed. All samples were mixed with a blender for 1 minute following the addition of the processing mixture and then placed into petri dishes containing various porphyrins. […] Cells in the unprocessed sputum samples remained attached to the bottom of the petri dish with only a few cells free of the mucous.
Four porphyrins selected for their known affinity for neoplastic cells were tested for their ability to detect malignant sputum cells. Sputum cells obtained from each of the four processing procedures set forth above were treated with one of hematoporphyrin derivative, HPD, 5,10,15,20-tetrakis(4-carboxyphenyl)porphine, TCPP, 5,10,15,20-tetrakis(4-sulfonatophenyl)porphine, TTPS, or uroporphyrin, URO. In all investigations, the porphyrins were dissolved in tissue culture medium at a concentration of 200 μg/ml. Following the addition of porphyrin, each sample was incubated at 37° C. for a specific length of time.
Following the incubation period, each sputum sample was examined for porphyrin uptake with a fluorescent microscope. The background fluorescence from porphyrin uptake by nonmalignant cells was lower in some measurements.
Each sputum sample was incubated at 37° C. with each of the porphyrins for either 6 or 24 hours and then evaluated for porphyrin uptake with a fluorescent microscope. At the 6 hour incubation period, the cells had begun to localize porphyrin; however, when the sputum cells were washed with PBS, the fluorescence diminished considerably. […] By 24 hours, by contrast, the uptale of porphyrin by sputum cells increased considerably. […] When the sputum cells that had been incubated for 24 hours were washed with PBS, the porphyrin remained attached to the cells. Longer incubation times were not investigated.
When porphyrin uptake in the test and control samples were compared (i.e., the number of sputum cells which fluoresced), the porphyrin uptake in the control samples was considerably lower than the uptake in the test samples. In addition, the fluorescence intensity of the few control cells that did floresce was lower than the fluorescence intensity of the test cells.

[2] = tested on: neoplastic sputum cells; experiment: TCPP fluorescence in PAP-stained neoplastic sputum cells; format: cell-based, human; settings: after PAP staining
Text: To assist in the identification of the neoplastic cells, sputum samples which had the greatest TCPP uptake were stained with PAP stain, a stain routinely used by cytologists to identify neoplastic cells. Cells identified as neoplastic using the PAP stain were marked and re-examined for TCPP uptake with a fluorescent microscope.

[3] = tested on: neoplastic sputum cells (squamous cell lung carcinoma, oat cell lung carcinoma, lung adenocarcinoma, advanced metastatic lymphoma); experiment: Fluorescence of sputum samples from lung cancer patients versus noncancerous patients; format: cell-based, human
Description: Studies were conducted using patients having confirmed squamous cell lung carcinoma, oat cell lung carcinoma, lung adenocarcinoma, and advanced metastatic lymphoma (lung metastasis) using procedures identical to those set forth above.

[4] = tested on: cancers of the lung grown in tissue cultures; experiment: TCPP localization in lung cancers grown in tissue culture; format: cell-based
[5] = tested on: squamous carcinoma cells; experiment: TCPP uptake in squamous carcinoma cells, flow cytometry; format: cell-based; settings: squamous carcinoma cells grown in culture
[6] = tested on: human small cell (oat cell) lung carcinoma; experiment: TCPP uptake in small cell lung carcinoma cells; format: cell-based
[7] = tested on: normal human lung epithelial cells; experiment: TCPP uptake in normal lung epithelial cells; format: cell-based
[8] = Serum stability: loss of copper measured by fluorescence under simulated physiological conditions; format: in vitro ADME, human
Text: An important consideration in the development of a radiopharmaceutical is the stability of the complex ^67 Cu TCPP to the loss of the radioisotope ^67 Cu in vivo.

[9] = Biodistribution in rats after intravenous injection; format: in vivo; settings: normal rats (no cancer), 1.0×10^-6 gm
Text: (§1) A sterile dose of ^67 CuTCPP (1.0×10^-6 gm) was intravenously injected into the tail vein of rats.

[10] = Biological half-life study; format: in vivo; settings: rats, intravenous; exponential decay
Text: as §1

[11] = 200 μg/ml, 37° C., four porphyrins compared

## O=C(O)c1ccc(-c2c3nc(c(-c4ccc(C(=O)O)cc4)c4ccc([nH]4)c(-c4ccc(C(=O)O)cc4)c4nc(c(-c5ccc(C(=O)O)cc5)c5ccc2[nH]5)C=C4)C=C3)cc1 [TCPP, 5,10,15,20-tetrakis(4-carboxyphenyl)porphine]
[1]; [11]
  contrast (brightness) between fluorescing malignant cells and background fluorescence: greatest contrast (brightness)
  number of cells fluorescing: greatest number of cells fluorescing
  porphyrin uptake: significant porphyrin uptake in the malignant bodies
[1]; alcohol or alcohol/carbowax processing vs PBS or unprocessed
  TCPP uptake by sputum processing procedure: highest TCPP uptake
[1]; four porphyrins compared
  difference between the uptake of porphyrin by test and control sputum cells: most dramatic difference
[2]
  TCPP fluorescence in neoplastic cells identified by PAP stain: seen in every neoplastic cell
[3]; carbowax and ethanol
  uptake of porphyrin in neoplastic sputum cells: greatest uptake of porphyrin in neoplastic sputum cells
[3]; sputum samples
  number of fluorescent cells times fluorescence intensity, cancer patients vs noncancerous patients: 3-6 times
[4]; 24 hours in TCPP
  incubation time for TCPP localization: more than adequate to maximize the TCPP localization
[4]; fixed prior to TCPP exposure
  effect of fixing the cells prior to TCPP exposure on TCPP uptake: increased the TCPP uptake
[4]; paraformaldehyde vs alcohol and carbowax
  effect of paraformaldehyde fixation on TCPP uptake: slightly increase the TCPP uptake
[4]; tissue culture
  localization in cultured lung cancers: localizes in cancers of the lung grown in tissue cultures
[5]
  detection by flow cytometry: can easily be detected using flow cytometry
[6]; vs normal cells
  TCPP uptake compared with normal cells: considerably higher than uptake in normal cells
[6]; vs squamous cell line
  TCPP absorption lower than in squamous cell line: 2-3 times lower
[7]; normal human lung epithelial cells
  TCPP concentration relative to autofluorescence or background: only slightly above autofluorescence or background levels
[7]; vs neoplastic cell lines examined
  TCPP concentration relative to neoplastic cell lines: many times lower concentration

## O=C([O-])c1ccc(C2=C3C=CC(=N3)C(c3ccc(C(=O)[O-])cc3)=C3C=CC(=N3)C(=c3ccc(=C([O-])[O-])cc3)c3ccc([n-]3)C(c3ccc(C(=O)[O-])cc3)=C3C=CC2=N3)cc1.[67Cu+2].[H+].[H+].[H+].[H+] [^67 CuTCPP]
[8]; human serum albumin, EDTA and DTPA, up to 12 days, one percent is the limit of detection
  conversion (loss of copper): less than one
[8]; ultraviolet-visible spectroscopy
  transcomplexation with other metal ions: no detectable transcomplexation with other metal ions
[9]
  uptake by normal lung tissue: does not appear to take up significant quantities
[9]; tail vein
  major organs of localization: liver and kidney
[10]
  biological half-life: 108 hours

## uroporphyrin [reference compound]
[1]; [11]
  porphyrin uptake: least porphyrin uptake
